Several values for one entry are separate records, joined by “and”; a condition that tells them apart may be missing. Equal values may be shown once. Read-outs that look alike come from different tables or passages of the source.
What was measured:
[1] = target: T1, Electric eel acetylcholinesterase (AChE, EC 3.1.1.7) (Electrophorus electricus, UniProt O42275); experiment: biochemical
T1 construct: purchased Sigma-Aldrich (USA)
Text: (§1) Ellman’s colorimetric method with minor modification was employed in the determination of AChE and BChE inhibitory activities. Electric eel acetylcholinesterase (AChE, EC 3.1.1.7), equine serum butyrylcholinesterase (BChE, EC 3.1.1.8), 5,5′-Dithiobis(2-nitrobenzoic acid) (DTNB) and sodium phosphate dibasic (Na2HPO4) were purchased from Sigma-Aldrich (USA). S-butyrylthiocholine chloride (BTCC) from Sigma-Aldrich (Switzerland), acetylthiocholine iodide (ATCI) from Sigma-Aldrich (United Kingdom) and sodium phosphate monobasic (NaH2PO4) from Sigma-Aldrich (Germany) were purchased. […] Ethanol was used to replace the sample as a control in this assay.

[2] = target: T2, equine serum butyrylcholinesterase (BChE, EC 3.1.1.8) (Equus caballus, UniProt P81908); experiment: biochemical; assay type: biochemical; settings: for BChE % inhibition: single read
T2 construct: equine serum butyrylcholinesterase (BChE, EC 3.1.1.8); purchased Sigma-Aldrich (USA); host or cells: equine serum
T2 sequence (P81908 whole entry): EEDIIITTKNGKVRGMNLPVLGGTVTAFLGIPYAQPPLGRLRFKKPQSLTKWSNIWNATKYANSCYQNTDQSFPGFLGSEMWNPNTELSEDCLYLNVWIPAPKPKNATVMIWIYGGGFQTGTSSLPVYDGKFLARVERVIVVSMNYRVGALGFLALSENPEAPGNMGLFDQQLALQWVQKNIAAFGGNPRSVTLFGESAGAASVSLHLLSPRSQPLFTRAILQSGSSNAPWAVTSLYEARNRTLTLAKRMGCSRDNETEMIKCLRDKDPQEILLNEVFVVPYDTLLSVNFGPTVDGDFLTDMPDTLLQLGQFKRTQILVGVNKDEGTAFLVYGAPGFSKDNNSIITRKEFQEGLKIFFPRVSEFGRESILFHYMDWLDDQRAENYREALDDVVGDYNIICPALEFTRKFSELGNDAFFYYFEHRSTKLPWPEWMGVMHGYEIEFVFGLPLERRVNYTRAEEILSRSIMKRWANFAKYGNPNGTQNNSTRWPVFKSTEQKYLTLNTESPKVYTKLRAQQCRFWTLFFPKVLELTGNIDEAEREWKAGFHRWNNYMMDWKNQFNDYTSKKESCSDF
Text: as §1

[3] = mean ± SD, n = 3, read-out: IC50 (µM) AChE
[4] = mean ± SD, n = 3, read-out: IC50 (µM) BChE
[5] = average of three reads, read-out: AChE IC50 (µM) Average
[6] = average of three reads, read-out: AChE IC50 (µg/mL) Average (converted)
[7] = first read, read-out: AChE IC50 (µM) First read
[8] = second read, read-out: AChE IC50 (µM) Second read
[9] = single read, unit not printed at place (µg/mL), read-out: AChE IC50 from regression on raw-data page (converted)
[10] = third read, read-out: AChE IC50 (µM) Third read
[11] = N = 3, unit not given (µg/mL scale), read-out: BChE IC50, Tukey HSD homogeneous subsets (group mean) (converted)
[12] = average of three reads, read-out: BChE IC50 (µM) Average
[13] = average of three reads, read-out: BChE IC50 (µg/mL) Average (converted)
[14] = first read, read-out: BChE IC50 (µM) First read
[15] = first read, read-out: BChE IC50 (µg/mL) First read (converted)
[16] = second read, read-out: BChE IC50 (µM) Second read
[17] = second read, read-out: BChE IC50 (µg/mL) Second read (converted)
[18] = third read, read-out: BChE IC50 (µM) Third read
[19] = third read, read-out: BChE IC50 (µg/mL) Third read (converted)
[20] = second read, read-out: AChE IC50 (µg/mL) Second read (converted)
[21] = third read, read-out: AChE IC50 (µg/mL) Third read (converted)
[22] = first read, read-out: AChE IC50 (µg/mL) First read (converted)

T1 sequence (O42275 24-633): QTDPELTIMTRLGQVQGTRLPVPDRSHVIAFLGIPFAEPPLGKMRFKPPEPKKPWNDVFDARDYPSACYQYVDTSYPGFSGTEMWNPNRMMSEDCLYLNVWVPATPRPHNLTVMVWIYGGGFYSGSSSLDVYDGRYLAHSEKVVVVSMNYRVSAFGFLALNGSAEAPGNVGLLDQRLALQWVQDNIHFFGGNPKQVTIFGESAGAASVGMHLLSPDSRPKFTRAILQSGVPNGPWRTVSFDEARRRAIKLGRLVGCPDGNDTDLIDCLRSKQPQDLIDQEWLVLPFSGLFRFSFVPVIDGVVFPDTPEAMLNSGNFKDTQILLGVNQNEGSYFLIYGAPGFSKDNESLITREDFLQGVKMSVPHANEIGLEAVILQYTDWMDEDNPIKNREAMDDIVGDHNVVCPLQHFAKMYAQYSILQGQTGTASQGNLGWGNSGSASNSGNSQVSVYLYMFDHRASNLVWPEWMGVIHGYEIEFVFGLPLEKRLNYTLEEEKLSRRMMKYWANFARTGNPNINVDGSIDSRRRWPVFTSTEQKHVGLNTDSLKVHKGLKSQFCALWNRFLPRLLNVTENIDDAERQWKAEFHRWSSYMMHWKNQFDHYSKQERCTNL

Row | SMILES | IC50 [1, 3] [µM] | IC50 [2, 4] [µM] | IC50 [1, 5] [µM] | IC50 [1, 6] [µM] | AChE % inhibition ([1]; conc 50 (µg/mL), single read) | AChE % inhibition ([1]; conc 100 (µg/mL), single read) | AChE % inhibition ([1]; conc 150 (µg/mL), single read) | AChE % inhibition ([1]; conc 200 (µg/mL), single read) | IC50 [1, 7] [µM] | IC50 [1, 8] [µM] | IC50 [1, 10] [µM] | IC50 [2, 11] [µM] | IC50 [2, 12] [µM] | IC50 [2, 13] [µM] | BChE % inhibition ([2]; conc 50 (µg/mL)) | BChE % inhibition ([2]; conc 100 (µg/mL)) | IC50 [2, 14] [µM] | IC50 [2, 15] [µM] | IC50 [1, 20] [µM] | IC50 [1, 21] [µM] | other results
1 | c1ccn2cc(C34CC5CC(CC(C5)C3)C4)nc2c1 [Compound 2a, 2-(adamantan-1-yl)imidazo[1,2-a]pyridine] | > 2000 | > 2000 |  |  |  |  |  |  |  |  |  |  |  |  |  |  |  |  |  |  | 
2 | Cc1cccn2cc(C34CC5CC(CC(C5)C3)C4)nc12.O [Compound 2b, 2-(adamantan-1-yl)-8-methylimidazo[1,2-a]pyridine hydrate] | 657 ± 60 | 706 ± 37 | 657 | 614 | 23.63% and 19.6906% and 32.91% | 27.71% and 37.97% and 34.60% | 38.54% and 49.65% and 47.82% | 52.60% and 54.71% and 61.74% | 721 | 646 | 603 | 663 | 706 | 660 | 21.17% and 17.3469% and 18.49% | 28.06% and 27.68% and 30.36% | 681 | 637 |  |  | IC50 ([1]; N = 3, unit not printed (µg/mL scale), read-out: AChE IC50, Tukey HSD homogeneous subsets (group mean) (converted)): 614 µM; AChE % inhibition ([1]; conc 250 (µg/mL), single read): 60.34% and 65.68% and 64.70%; AChE % inhibition ([1]; conc 300 (µg/mL), single read): 75.67% and 76.23% and 73.56%; IC50 [1, 9]: 674 µM and 605 µM and 564 µM; BChE % inhibition ([2]; conc 200 (µg/mL)): 49.87% and 45.66% and 43.75%; BChE % inhibition ([2]; conc 300 (µg/mL)): 64.41% and 61.35% and 67.86%; BChE % inhibition ([2]; conc 400 (µg/mL)): 72.45% and 75.51%; BChE % inhibition ([2]; conc 500 (µg/mL)): 80.48% and 74.74% and 73.60%; BChE % inhibition ([2]; conc 600 (µg/mL)): 81.63% and 77.81%; BChE % inhibition ([2]; conc 700 (µg/mL)): 82.40% and 85.08% and 88.14%; IC50 [2, 16]: 748 µM; IC50 [2, 17]: 700 µM; IC50 [2, 18]: 689 µM; IC50 [2, 19]: 644 µM
3 | Cc1ccn2cc(C34CC5CC(CC(C5)C3)C4)nc2c1.O [Compound 2c, 2-(adamantan-1-yl)-7-methylimidazo[1,2-a]pyridine hydrate] | 270 ± 21 | > 2000 | 270 | 252 | 41.33% and 47.36% and 42.61% | 56.96% and 48.25% and 49.14% | 68.34% and 71.41% and 72.20% | 71.21% and 69.72% and 76.25% | 293 | 267 | 250 |  |  |  |  |  |  |  | 249 | 234 | AChE % inhibition ([1]; conc 25 (µg/mL), single read): 20.55% and 27.0778% and 32.32%; AChE % inhibition ([1]; conc 250 (µg/mL), single read): 76.15% and 78.73% and 78.33%; IC50 [1, 9]: 274 µM
4 | Cc1ccc2nc(C34CC5CC(CC(C5)C3)C4)cn2c1 [Compound 2d, 2-(adamantan-1-yl)-6-methylimidazo[1,2-a]pyridine] | > 2000 | > 2000 |  |  |  |  |  |  |  |  |  |  |  |  |  |  |  |  |  |  | 
5 | Clc1ccn2cc(C34CC5CC(CC(C5)C3)C4)nc2c1 [Compound 2e, 2-(adamantan-1-yl)-7-chloroimidazo[1,2-a]pyridine hydrate] | > 2000 | > 2000 |  |  |  |  |  |  |  |  |  |  |  |  |  |  |  |  |  |  | 
6 | c1ccc(-c2ccc(-c3cn4ccccc4n3)cc2)cc1 [Compound 2f, 2-([1,1′-biphenyl]-4-yl)imidazo[1,2-a]pyridine] | 208 ± 17 | > 2000 | 208 | 208 |  |  |  |  | 228 | 196 | 200 |  |  |  |  |  |  |  | 196 | 200 | AChE % inhibition ([1]; conc 30 (µg/mL), single read): -1.6523% and -0.07%; AChE % inhibition ([1]; conc 40 (µg/mL), single read): 19.47% and 31.90% and 23.42%; AChE % inhibition ([1]; conc 60 (µg/mL), single read): 46.62% and 65.66% and 72.27%; AChE % inhibition ([1]; conc 70 (µg/mL), single read): 57.54% and 72.63% and 80.68%; AChE % inhibition ([1]; conc 80 (µg/mL), single read): 86.28% and 82.61% and 80.17%; IC50 [1, 22]: 228 µM
7 | Cc1cccn2cc(-c3ccc(-c4ccccc4)cc3)nc12 [Compound 2g, 2-([1,1′-biphenyl]-4-yl)-8-methylimidazo[1,2-a]pyridine] | 288 ± 48 | 315 ± 6 | 288 | 288 |  | 66.67% and 62.62% and 65.90% | 81.50% and 87.67% and 85.81% | 83.04% and 90.94% and 100.39% | 343 | 264 | 258 | 315 | 315 | 315 |  | 61.12% and 73.89% and 66.92% | 311 | 310 | 263 | 258 | AChE % inhibition ([1]; conc 250 (µg/mL), single read): 106.74% and 92.10% and 107.32%; AChE % inhibition ([1]; conc 300 (µg/mL), single read): 140.85% and 130.64% and 128.52%; IC50 [1, 22]: 343 µM; BChE % inhibition ([2]; conc 60 (µg/mL)): 7.74% and 0.19% and 6.00%; BChE % inhibition ([2]; conc 80 (µg/mL)): 35.59% and 45.45% and 37.33%; BChE % inhibition ([2]; conc 90 (µg/mL)): 48.36% and 35.01% and 51.84%; BChE % inhibition ([2]; conc 110 (µg/mL)): 84.33% and 65.76% and 66.92%; BChE % inhibition ([2]; conc 120 (µg/mL)): 106.96% and 76.79% and 121.47%; IC50 [2, 16]: 322 µM; IC50 [2, 17]: 322 µM; IC50 [2, 18]: 312 µM; IC50 [2, 19]: 311 µM
8 | Cc1ccc2nc(-c3ccc(-c4ccccc4)cc3)cn2c1 [Compound 2h, 2-([1,1′-biphenyl]-4-yl)-6-methylimidazo[1,2-a]pyridine] | 79 ± 10 | 496 ± 27 | 79.2 | 79.1 | 92.28% and 79.96% and 93.21% | 99.77% and 84.22% and 106.56% |  |  | 83.8 | 86.3 | 67.4 | 484 | 496 | 496 | 28.12% and 20.13% and 20.63% | 19.13% and 27.12% and 17.64% | 485 | 484 | 86.2 | 67.3 | AChE % inhibition ([1]; conc 25 (µg/mL), single read): 58.20% and 76.39% and 68.79%; AChE % inhibition ([1]; conc 75 (µg/mL), single read): 92.40% and 88.83% and 96.55%; IC50 [1, 22]: 83.7 µM; BChE % inhibition ([2]; conc 150 (µg/mL)): 48.09% and 45.09% and 49.08%; BChE % inhibition ([2]; conc 200 (µg/mL)): 83.03% and 81.03% and 75.54%; BChE % inhibition ([2]; conc 250 (µg/mL)): 102.50% and 115.97% and 86.02%; IC50 [2, 16]: 477 µM; IC50 [2, 17]: 476 µM; IC50 [2, 18]: 528 µM; IC50 [2, 19]: 527 µM
9 | Clc1cccn2cc(-c3ccc(-c4ccccc4)cc3)nc12 [Compound 2i, 2-([1,1′-biphenyl]-4-yl)-8-chloroimidazo[1,2-a]pyridine] | 253 ± 25 | > 2000 | 253 | 253 | 10.30% and 14.24% and 6.35% | 49.40% and 76.34% and 66.48% | 92.44% and 89.16% and 84.56% | 97.37% and 103.61% and 101.97% | 269 | 225 | 266 |  |  |  |  |  |  |  | 224 | 265 | AChE % inhibition ([1]; conc 75 (µg/mL), single read): 37.90% and 58.60% and 35.60%; AChE % inhibition ([1]; conc 125 (µg/mL), single read): 81.60% and 94.74% and 74.70%; IC50 [1, 22]: 268 µM
10 | Clc1ccc(-c2cn3ccccc3n2)cc1Cl [Compound 2j, 2-(3,4-dichlorophenyl)imidazo[1,2-a]pyridine] | > 2000 |  |  |  |  |  |  |  |  |  |  | 75.6 |  |  | 63.01% and 66.76% and 69.65% | 91.04% and 87.86% and 90.17% |  |  |  |  | BChE % inhibition ([2]; conc 12.5 (µg/mL)): 27.75% and 48.55% and 34.78%; BChE % inhibition ([2]; conc 25 (µg/mL)): 50.87% and 55.49% and 62.14%
11 | Cc1cccn2cc(-c3ccc(Cl)c(Cl)c3)nc12 [Compound 2k, 2-(3,4-dichlorophenyl)-8-methylimidazo[1,2-a]pyridine] | > 2000 | 191 ± 29 |  |  |  |  |  |  |  |  |  | 197 | 191 | 191 | 44.12% and 38.16% and 45.75% | 66.91% and 74.50% | 225 | 224 |  |  | BChE % inhibition ([2]; conc 150 (µg/mL)): 80.47% and 68.54% and 70.16%; BChE % inhibition ([2]; conc 200 (µg/mL)): 146.65% and 115.19%; IC50 [2, 16]: 177 µM; IC50 [2, 17]: 176 µM; IC50 [2, 18]: 172 µM; IC50 [2, 19]: 171 µM
12 | COc1ccc(-c2cn3ccccc3n2)cc1 [Compound 2l, 2-(4-methoxyphenyl)imidazo[1,2-a]pyridine] | > 2000 | > 2000 |  |  |  |  |  |  |  |  |  |  |  |  |  |  |  |  |  |  | 
13 | COc1ccc(-c2cn3cccc(C)c3n2)cc1 [Compound 2m, 2-(4-methoxyphenyl)-8-methylimidazo[1,2-a]pyridine] | > 2000 | > 2000 |  |  |  |  |  |  |  |  |  |  |  |  |  |  |  |  |  |  | 
